Assay results: ChEMBL document CHEMBL3774308, “KATching-Up on Small Molecule Modulators of Lysine Acetyltransferases” (J Med Chem, 2016)
One block for each compound: values may come before it.

Key:
[1] = target: T1, Histone acetyltransferase p300 (Homo sapiens, UniProt Q09472); assay: Inhibition of recombinant p300 catalytic domain (unknown origin) using N-terminal histone H3 substrate at 52 uM by orthogonal fluorescence assay in presence of [3H]acetyl-CoA relative to control
[2] = target: T1, Histone acetyltransferase p300; assay: Inhibition of recombinant p300 catalytic domain (unknown origin) using N-terminal histone H3 substrate by radiometric filter binding assay in presence of [3H]acetyl-CoA
[3] = test system: Saccharomyces cerevisiae; assay: Inhibition of yeast YJW458 TAP-tagged SAS2 expressed in Escherichia coli BL21-CodonPlus(DE3)-RIL cells using histone H3 as substrate at 10 uM incubated for 2 to 4 mins by SDS-PAGE based autoradiography in presence of [14C]acetyl-CoA relative to control
[4] = target: T2, Histone acetyltransferase KAT2B (Homo sapiens, UniProt Q92831); assay: Inhibition of PCAF (unknown origin) using H4-15 peptide substrate at 10 uM incubated for 10 mins by radiometric filter binding assay in presence of [14C]acetyl-CoA relative to control
Target sequence in this assay (Q92831 whole entry, looked up): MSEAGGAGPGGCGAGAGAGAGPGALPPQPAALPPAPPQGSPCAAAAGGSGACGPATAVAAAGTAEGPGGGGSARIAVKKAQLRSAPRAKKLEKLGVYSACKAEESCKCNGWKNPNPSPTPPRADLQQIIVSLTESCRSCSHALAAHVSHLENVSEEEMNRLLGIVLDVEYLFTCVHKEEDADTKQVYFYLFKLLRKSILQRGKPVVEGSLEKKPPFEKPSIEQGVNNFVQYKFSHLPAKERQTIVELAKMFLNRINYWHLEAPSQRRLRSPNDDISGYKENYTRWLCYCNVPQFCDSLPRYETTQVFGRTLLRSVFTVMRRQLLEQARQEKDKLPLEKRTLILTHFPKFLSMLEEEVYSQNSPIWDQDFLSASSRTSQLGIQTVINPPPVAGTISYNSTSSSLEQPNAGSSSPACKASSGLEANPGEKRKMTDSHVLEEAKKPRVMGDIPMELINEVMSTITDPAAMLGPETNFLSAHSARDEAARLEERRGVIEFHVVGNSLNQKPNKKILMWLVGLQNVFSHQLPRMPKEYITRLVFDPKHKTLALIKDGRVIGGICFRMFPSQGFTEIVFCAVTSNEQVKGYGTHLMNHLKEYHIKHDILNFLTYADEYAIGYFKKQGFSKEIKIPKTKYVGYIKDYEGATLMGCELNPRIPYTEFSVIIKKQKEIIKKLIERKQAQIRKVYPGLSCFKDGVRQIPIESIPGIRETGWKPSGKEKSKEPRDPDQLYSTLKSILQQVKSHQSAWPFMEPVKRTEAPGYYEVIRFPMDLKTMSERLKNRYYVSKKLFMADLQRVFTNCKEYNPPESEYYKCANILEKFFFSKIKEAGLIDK

[5] = test system: Saccharomyces cerevisiae; assay: Inhibition of yeast GCN5 using histone H3 substrate at 10 uM incubated for 2 to 4 mins by SDS-PAGE based autoradiography in presence of [14C]acetyl-CoA relative to control
[6] = target: Histone acetyltransferase KAT6A (Homo sapiens) (UniProt Q92794); assay: Inhibition of human MOZ using histone H3 substrate at 10 uM incubated for 2 to 4 mins by SDS-PAGE based autoradiography in presence of [14C]acetyl-CoA relative to control
[7] = test system: Saccharomyces cerevisiae; assay: Inhibition of yeast RTT109 using histone H3 substrate at 10 uM incubated for 2 to 4 mins by SDS-PAGE based autoradiography in presence of [14C]acetyl-CoA relative to control
[8] = target: T2, Histone acetyltransferase KAT2B; assay: Inhibition of recombinant human PCAF catalytic domain (492 to 658 residues) expressed in Escherichia coli using histone H3 (5 to 23 residues) as substrate at 800 uM after 1 hr by liquid scintillation counting method in presence of [3H]acetyl-CoA relative to control
Target sequence in this assay (Q92831 whole entry, looked up): as above

[9] = target: T3, Histone acetyltransferase KAT2A (Homo sapiens, UniProt Q92830); assay: Inhibition of recombinant human GCN5 catalytic domain (497 to 663 residues) expressed in Escherichia coli using histone H3 (5 to 23 residues) as substrate at 800 uM after 1 hr by liquid scintillation counting method in presence of [3H]acetyl-CoA relative to control
[10] = target: T1, Histone acetyltransferase p300; assay: Inhibition of full length recombinant His6-tagged p300 (unknown origin) expressed in baculovirus expression system using histone substrate after 10 mins by liquid scintillation counting method in presence of [3H]acetyl-CoA
[11] = target: T2, Histone acetyltransferase KAT2B; assay: Inhibition of recombinant PCAF (unknown origin) expressed in baculovirus expression system using histone substrate after 10 mins by liquid scintillation counting method in presence of [3H]acetyl-CoA
Target sequence in this assay (Q92831 whole entry): as the sequence (Q92831 whole entry, looked up) above

[12] = target: T1, Histone acetyltransferase p300; assay: Inhibition of human recombinant p300 catalytic domain (1284 to 1673 residues) expressed in Escherichia coli using H4-8 peptide substrate by radiometric assay in presence of [3H]acetyl-CoA
[13] = target: T4, Histone acetyltransferase KAT5 (Homo sapiens, UniProt Q92993); assay: Inhibition of full length TIP60 (unknown origin) expressed in Escherichia coli using N-terminal histone H4-20 peptide substrate incubated for 10 mins by liquid scintillation counting method in presence of [3H]acetyl-CoA
Target sequence in this assay (Q92993 whole entry): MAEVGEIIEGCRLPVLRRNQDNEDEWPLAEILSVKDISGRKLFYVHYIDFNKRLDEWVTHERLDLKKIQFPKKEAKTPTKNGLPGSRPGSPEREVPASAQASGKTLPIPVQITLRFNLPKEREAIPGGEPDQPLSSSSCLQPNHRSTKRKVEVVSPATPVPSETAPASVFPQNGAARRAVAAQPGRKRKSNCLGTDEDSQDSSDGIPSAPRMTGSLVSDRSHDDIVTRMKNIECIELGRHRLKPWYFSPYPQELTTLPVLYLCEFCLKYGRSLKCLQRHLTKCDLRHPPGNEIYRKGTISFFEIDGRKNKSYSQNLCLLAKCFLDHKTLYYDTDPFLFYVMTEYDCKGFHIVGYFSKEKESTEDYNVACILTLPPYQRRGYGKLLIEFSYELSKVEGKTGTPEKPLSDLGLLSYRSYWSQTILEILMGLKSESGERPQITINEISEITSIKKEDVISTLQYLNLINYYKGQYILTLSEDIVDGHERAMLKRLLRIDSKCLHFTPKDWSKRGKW

[14] = target: T1, Histone acetyltransferase p300; assay: Inhibition of p300 (unknown origin) using N-terminal histone H4-20 peptide substrate incubated for 10 mins by liquid scintillation counting method in presence of [14C]acetyl-CoA
[15] = target: T2, Histone acetyltransferase KAT2B; assay: Inhibition of PCAF (unknown origin) using N-terminal histone H3-20 peptide substrate incubated for 3.5 mins by liquid scintillation counting method in presence of [3H]acetyl-CoA
Target sequence in this assay (Q92831 whole entry): as the sequence (Q92831 whole entry, looked up) above

[16] = target: T5, Histone acetyltransferase ESA1 (Saccharomyces cerevisiae (strain ATCC 204508 / S288c) (Baker's yeast), UniProt Q08649); assay: Inhibition of yeast ESA1 using N-terminal histone H3 substrate by radiometric filter binding based […] in presence of [3H]acetyl-CoA
T5 sequence (Q08649 whole entry): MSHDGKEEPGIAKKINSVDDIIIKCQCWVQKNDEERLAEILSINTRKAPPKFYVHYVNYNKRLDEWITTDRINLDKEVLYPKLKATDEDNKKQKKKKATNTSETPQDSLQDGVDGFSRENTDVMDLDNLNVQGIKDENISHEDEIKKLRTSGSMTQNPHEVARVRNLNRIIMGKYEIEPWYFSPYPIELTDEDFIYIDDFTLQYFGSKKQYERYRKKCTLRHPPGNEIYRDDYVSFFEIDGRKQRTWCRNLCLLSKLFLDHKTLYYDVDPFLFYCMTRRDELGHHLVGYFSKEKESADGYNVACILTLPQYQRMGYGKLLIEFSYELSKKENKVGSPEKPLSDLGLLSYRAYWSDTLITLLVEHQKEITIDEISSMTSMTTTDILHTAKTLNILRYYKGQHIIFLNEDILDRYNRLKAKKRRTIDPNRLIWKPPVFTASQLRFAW

[17] = target: T1, Histone acetyltransferase p300; assay: Inhibition of recombinant p300 (unknown origin) expressed in baculovirus expression system using histone substrate at 50 uM after 10 mins by liquid scintillation counting method in presence of [3H]acetyl-CoA relative to control
[18] = target: T2, Histone acetyltransferase KAT2B; assay: Inhibition of recombinant PCAF (unknown origin) expressed in baculovirus expression system using histone substrate at 50 uM after 10 mins by liquid scintillation counting method in presence of [3H]acetyl-CoA relative to control
Target sequence in this assay (Q92831 whole entry, looked up): as the sequence (Q92831 whole entry, looked up) above

[19] = target: T2, Histone acetyltransferase KAT2B; assay: Inhibition of PCAF (unknown origin) using N-terminal histone H3 substrate by radiometric filter binding based phenotypic screen in presence of [3H]acetyl-CoA
Target sequence in this assay (Q92831 whole entry): as the sequence (Q92831 whole entry, looked up) above

[20] = target: T3, Histone acetyltransferase KAT2A; assay: Inhibition of GCN5 (unknown origin) using N-terminal histone H3 substrate by radiometric filter binding based phenotypic screen in presence of [3H]acetyl-CoA
[21] = target: T1, Histone acetyltransferase p300; assay: Inhibition of recombinant p300 catalytic domain (unknown origin) using N-terminal histone H3 substrate by radiometric filter binding based phenotypic screen in presence of [3H]acetyl-CoA
[22] = target: CREB-binding protein (Homo sapiens, UniProt Q92793); assay: Inhibition of CBP (unknown origin) using N-terminal histone H3 substrate at 100 uM by radiometric filter binding based phenotypic screen in presence of [3H]acetyl-CoA relative to control
[23] = target: Histone acetyltransferase KAT7 (Homo sapiens) (UniProt O95251); assay: Inhibition of HBO1 (unknown origin) using N-terminal histone H3 substrate at 100 uM by […] in presence of [3H]acetyl-CoA relative to control
Sequence of Histone acetyltransferase KAT7 (Homo sapiens) (O95251 whole entry): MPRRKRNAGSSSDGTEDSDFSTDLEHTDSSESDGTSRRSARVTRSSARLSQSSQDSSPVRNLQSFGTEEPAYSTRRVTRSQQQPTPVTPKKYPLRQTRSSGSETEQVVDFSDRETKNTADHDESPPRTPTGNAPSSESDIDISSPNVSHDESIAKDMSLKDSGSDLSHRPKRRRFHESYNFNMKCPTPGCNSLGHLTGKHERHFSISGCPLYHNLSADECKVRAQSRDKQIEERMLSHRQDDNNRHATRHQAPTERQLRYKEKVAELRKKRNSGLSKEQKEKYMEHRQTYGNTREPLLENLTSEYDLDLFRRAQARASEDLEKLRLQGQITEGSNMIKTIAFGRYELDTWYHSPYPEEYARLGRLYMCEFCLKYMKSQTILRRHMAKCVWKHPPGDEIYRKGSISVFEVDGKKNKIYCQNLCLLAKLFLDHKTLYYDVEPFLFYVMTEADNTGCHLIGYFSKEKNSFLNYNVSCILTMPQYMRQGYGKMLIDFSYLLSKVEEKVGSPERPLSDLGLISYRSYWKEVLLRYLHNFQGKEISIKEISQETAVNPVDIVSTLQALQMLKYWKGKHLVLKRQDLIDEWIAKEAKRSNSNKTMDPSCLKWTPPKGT

[24] = target: T4, Histone acetyltransferase KAT5; assay: Inhibition of TIP60 (unknown origin) using N-terminal histone H3 substrate at 100 uM by […] in presence of [3H]acetyl-CoA relative to control
Target sequence in this assay (Q92993 whole entry, looked up): as the sequence (Q92993 whole entry) above

[25] = target: T1, Histone acetyltransferase p300; assay: Inhibition of recombinant p300 catalytic domain (unknown origin) using N-terminal histone H3 substrate by orthogonal fluorescence assay in presence of [3H]acetyl-CoA
[26] = target: T1, Histone acetyltransferase p300; assay: Activation of full length recombinant human His6-tagged p300 expressed in baculovirus infected Sf21 cells using N-terminal H3 peptide substrate at 275 uM after 10 mins by radiometric filter binding assay in presence of [3H]acetyl-CoA relative to control

T1 sequence (Q09472 whole entry, the tested form may be a part): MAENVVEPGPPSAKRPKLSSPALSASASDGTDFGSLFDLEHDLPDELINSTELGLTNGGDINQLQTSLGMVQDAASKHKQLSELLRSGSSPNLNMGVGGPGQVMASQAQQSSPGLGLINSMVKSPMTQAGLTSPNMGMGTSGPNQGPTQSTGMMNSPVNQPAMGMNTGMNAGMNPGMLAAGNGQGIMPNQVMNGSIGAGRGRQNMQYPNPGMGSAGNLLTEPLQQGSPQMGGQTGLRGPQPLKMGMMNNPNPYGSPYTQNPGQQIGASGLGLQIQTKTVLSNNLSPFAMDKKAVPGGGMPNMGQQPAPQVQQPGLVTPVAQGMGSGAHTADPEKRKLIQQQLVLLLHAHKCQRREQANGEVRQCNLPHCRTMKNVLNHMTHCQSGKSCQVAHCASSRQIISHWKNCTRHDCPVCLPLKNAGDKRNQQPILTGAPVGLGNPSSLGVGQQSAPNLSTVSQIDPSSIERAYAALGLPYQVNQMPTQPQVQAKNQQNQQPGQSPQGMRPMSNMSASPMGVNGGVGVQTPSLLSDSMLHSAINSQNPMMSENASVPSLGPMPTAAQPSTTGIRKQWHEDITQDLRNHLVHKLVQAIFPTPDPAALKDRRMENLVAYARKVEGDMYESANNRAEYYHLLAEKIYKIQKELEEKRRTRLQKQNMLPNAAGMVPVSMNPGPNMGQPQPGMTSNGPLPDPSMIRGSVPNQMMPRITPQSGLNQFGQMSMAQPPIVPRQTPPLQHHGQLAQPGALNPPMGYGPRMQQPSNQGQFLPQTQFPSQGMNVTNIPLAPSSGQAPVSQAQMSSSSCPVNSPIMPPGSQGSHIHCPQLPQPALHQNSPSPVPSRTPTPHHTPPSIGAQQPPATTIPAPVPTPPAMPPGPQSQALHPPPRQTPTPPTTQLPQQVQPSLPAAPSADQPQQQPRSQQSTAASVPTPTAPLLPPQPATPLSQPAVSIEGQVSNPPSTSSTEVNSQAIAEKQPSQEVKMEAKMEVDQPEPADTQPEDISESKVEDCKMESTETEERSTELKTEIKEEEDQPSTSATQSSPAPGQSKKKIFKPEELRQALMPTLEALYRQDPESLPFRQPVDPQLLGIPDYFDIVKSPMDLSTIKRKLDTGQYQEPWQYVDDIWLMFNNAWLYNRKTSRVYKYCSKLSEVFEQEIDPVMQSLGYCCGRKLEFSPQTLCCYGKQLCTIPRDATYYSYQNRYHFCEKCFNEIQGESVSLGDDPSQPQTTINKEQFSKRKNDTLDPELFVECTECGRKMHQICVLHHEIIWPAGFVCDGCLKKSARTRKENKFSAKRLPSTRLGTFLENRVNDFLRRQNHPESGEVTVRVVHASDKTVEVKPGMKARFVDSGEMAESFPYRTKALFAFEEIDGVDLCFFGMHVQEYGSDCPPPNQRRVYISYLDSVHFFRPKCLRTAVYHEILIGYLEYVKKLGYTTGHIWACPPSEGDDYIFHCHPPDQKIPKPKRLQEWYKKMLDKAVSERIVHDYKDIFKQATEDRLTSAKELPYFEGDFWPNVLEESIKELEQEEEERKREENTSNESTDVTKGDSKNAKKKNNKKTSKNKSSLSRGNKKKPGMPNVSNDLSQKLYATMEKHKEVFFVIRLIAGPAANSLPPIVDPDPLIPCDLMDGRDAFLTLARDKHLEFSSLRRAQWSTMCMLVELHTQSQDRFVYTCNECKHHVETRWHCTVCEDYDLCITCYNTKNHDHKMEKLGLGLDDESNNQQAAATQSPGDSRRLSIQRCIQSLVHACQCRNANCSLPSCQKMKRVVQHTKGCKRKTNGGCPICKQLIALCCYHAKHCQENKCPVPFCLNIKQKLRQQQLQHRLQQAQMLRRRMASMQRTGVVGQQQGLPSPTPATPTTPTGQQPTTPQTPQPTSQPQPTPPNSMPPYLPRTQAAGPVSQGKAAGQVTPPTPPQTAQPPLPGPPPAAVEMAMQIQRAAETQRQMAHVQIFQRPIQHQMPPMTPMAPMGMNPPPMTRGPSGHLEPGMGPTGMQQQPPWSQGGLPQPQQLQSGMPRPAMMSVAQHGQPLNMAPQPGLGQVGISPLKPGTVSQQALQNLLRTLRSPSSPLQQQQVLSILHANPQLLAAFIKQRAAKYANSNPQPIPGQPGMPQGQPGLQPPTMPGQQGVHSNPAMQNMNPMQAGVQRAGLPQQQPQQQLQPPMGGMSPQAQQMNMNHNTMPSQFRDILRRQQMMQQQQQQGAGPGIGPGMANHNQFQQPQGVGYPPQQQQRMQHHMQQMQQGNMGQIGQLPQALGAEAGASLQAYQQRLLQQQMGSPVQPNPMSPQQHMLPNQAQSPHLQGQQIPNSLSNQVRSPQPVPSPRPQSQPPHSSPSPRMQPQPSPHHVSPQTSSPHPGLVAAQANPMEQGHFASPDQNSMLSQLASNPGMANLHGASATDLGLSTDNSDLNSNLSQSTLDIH

inhibition [4]: < 10%
inhibition [5]: < 10%
inhibition [6]: < 10%
inhibition [7]: < 10%
Compound: CC1=NN(c2ccc(C(=O)O)cc2)C(=O)/C1=C\c1ccc(-c2cc(C)c(C)cc2[N+](=O)[O-])o1
inhibition [3]: < 10%

inhibition [8]: 40%
inhibition [9]: 40%
Compound: CC1CC/C(=N/Nc2nc(-c3ccc(Cl)cc3)cs2)C1 (stereo unspecified)

IC50 [13]: 149 µM
IC50 [14]: 150 µM
IC50 [15]: > 100 µM
IC50 [16]: 190 µM
Compound: COc1ccc(C2CC(c3cccs3)=NN2c2nc(-c3ccc(N4C(=O)c5ccccc5C4=O)cc3)cs2)cc1OC (stereo unspecified)

IC50 [19]: 34.7 µM
IC50 [20]: 33.9 µM
IC50 [21]: 128 µM
inhibition [22]: 32%
inhibition [23]: 1%
inhibition [24]: 2%
IC50 [25]: 1.98 µM
Compound: COc1ccc(S(=O)(=O)ON=C2C=C(C)C(=O)C(C)=C2)cc1

Continued, compound first:

Compound: CCCCCCCCCCCCCCCc1cccc(O)c1C(=O)O [ANACARDIC ACID]
%max [1]: 60%
IC50 [2]: 4.15 µM

Compound: CC1=CC(=O)c2c(O)cccc2C1=O [PLUMBAGIN]
IC50 [10]: 20 µM
IC50 [11]: 50 µM

Compound: CC(C)(C)OC(=O)NCCCCCNC(=O)CSCCNC(=O)CCNC(=O)[C@H](O)C(C)(C)COP(=O)(O)OP(=O)(O)OC[C@H]1O[C@@H](n2cnc3c(N)ncnc32)[C@H](O)[C@@H]1OP(=O)(O)O
IC50 [12]: 0.07 µM

Compound: COc1cc(/C=C/c2cc(/C=C/c3ccc(O)c(OC)c3)n(-c3ccc(C(=O)O)cc3)n2)ccc1O
inhibition [17]: > 50%
inhibition [18]: > 50%

Compound: CCCCCCCCCCCCCCCc1cccc(OCC)c1C(=O)Nc1ccc(Cl)c(C(F)(F)F)c1
Emax [26]: 400%
